From patent US8822446B2, “Pyrrolopyridine inhibitors of kinases” (AbbVie Inc., priority 2010, dated 2014)

target: T1, Cdc7 (BEV coexpressed huCDC7/DBF4) (Homo sapiens, UniProt O00311); assay: Cdc7 enzyme inhibition assay ([33P]-ATP, biotinylated peptide substrate, FlashPlate); assay type: biochemical; conditions: Ki generated from IC50 assuming ATP-competitive inhibition; 1 μM ATP, apparent ATP Km 0.7 μM; 1 hr reaction
T1 construct: made in house; host or cells: baculovirus expression vector (BEV) co-expression
Method: This example describes the assays that may be used to identify compounds having kinase activity.
Cdc7 (BEV coexpressed huCDC7/DBF4) is prepared internally. Cdc7 assays are conducted as follows with final concentrations as listed. In 384-well v-bottom polypropylene plates, 6 μL compound (2% DMSO), is mixed with 6 μL of Cdc7 (2 ug/mL), and Jerini peptide substrate A-A11 (biotin-C6linker-[…]) (2 μM), followed by immediate initiation with 6 μL […] (1 μM, 20 mCi/μmol) using a reaction buffer comprising 25 mM HEPES, pH 7.5, 1 mM DTT, 10 mM MgCl2, 100 μM, Na3VO4, 0.075 mg/ml Triton X-100. Reactions are quenched after 1 hr by the addition of 90 μL stop buffer (50 mM EDTA, 2M NaCl).
Table 1 depicts enzyme inhibition data (Ki) for exemplary compounds.

T1 sequence (O00311 whole entry): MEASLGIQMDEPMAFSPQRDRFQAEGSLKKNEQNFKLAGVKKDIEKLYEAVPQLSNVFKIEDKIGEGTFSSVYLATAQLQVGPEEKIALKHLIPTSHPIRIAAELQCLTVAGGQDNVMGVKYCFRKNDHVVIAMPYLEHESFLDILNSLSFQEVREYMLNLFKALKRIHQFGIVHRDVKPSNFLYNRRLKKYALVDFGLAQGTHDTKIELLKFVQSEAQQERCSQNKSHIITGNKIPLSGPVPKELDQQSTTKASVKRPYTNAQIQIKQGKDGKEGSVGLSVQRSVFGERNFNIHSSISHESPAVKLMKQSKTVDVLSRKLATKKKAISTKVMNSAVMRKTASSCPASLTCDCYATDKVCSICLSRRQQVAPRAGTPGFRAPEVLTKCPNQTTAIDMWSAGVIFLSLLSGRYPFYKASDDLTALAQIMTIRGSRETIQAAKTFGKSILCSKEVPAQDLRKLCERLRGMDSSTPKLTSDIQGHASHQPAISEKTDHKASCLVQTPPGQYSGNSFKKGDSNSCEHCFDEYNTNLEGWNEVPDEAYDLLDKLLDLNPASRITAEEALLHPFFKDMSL
T1 sequence (Q9UBU7 whole entry partner): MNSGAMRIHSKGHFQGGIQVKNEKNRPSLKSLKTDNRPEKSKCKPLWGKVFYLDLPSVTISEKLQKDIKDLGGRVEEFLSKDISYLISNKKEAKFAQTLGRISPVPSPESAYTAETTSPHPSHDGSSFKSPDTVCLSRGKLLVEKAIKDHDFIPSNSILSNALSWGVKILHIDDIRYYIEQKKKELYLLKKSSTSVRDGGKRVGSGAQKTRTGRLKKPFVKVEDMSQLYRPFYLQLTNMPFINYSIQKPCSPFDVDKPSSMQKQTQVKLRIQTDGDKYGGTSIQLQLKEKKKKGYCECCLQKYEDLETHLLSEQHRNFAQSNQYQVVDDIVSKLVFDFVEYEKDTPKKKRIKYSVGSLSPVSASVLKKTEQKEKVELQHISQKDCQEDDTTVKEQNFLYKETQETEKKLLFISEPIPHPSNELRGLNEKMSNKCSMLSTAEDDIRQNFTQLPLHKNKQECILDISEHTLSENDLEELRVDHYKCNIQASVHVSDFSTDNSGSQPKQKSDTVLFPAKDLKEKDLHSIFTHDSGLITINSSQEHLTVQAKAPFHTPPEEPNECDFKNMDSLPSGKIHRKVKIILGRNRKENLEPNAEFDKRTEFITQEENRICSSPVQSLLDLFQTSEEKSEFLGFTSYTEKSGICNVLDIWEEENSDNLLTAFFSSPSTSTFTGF

Row | Ki | SMILES
1 | < 10 nM | O=c1cc(-c2c[nH]c3ncccc23)nc(N2CCC(O)CC2)[nH]1 [Example 7, 2-(4-hydroxypiperidin-1-yl)-6-(1H-pyrrolo[2,3-b]pyridin-3-yl)pyrimidin-4(3H)-one]
2 | < 10 nM | COc1ccc(C(F)(F)F)cc1-c1cc(-c2c[nH]c3ncccc23)cc(=O)[nH]1 [Example 46, 6-[2-methoxy-5-(trifluoromethyl)phenyl]-4-(1H-pyrrolo[2,3-b]pyridin-3-yl)pyridin-2(1H)-one]
3 | < 10 nM | O=c1cc(-c2c[nH]c3ncccc23)nc(NCCO)[nH]1 [Example 19, 2-[(2-hydroxyethyl)amino]-6-(1H-pyrrolo[2,3-b]pyridin-3-yl)pyrimidin-4(3H)-one]
4 | < 10 nM | O=C(N[C@H]1CC[C@H](Nc2cc(-c3c[nH]c4ncccc34)cc(=O)[nH]2)CC1)C1CC1 [Example 58, N-(trans-4-{[6-oxo-4-(1H-pyrrolo[2,3-b]pyridin-3-yl)-1,6-dihydropyridin-2-yl]amino}cyclohexyl)cyclopropanecarboxamide]
5 | < 10 nM | O=c1cc(-c2c[nH]c3ncccc23)cc(-c2ccsc2)[nH]1 [Example 40, 4-(1H-pyrrolo[2,3-b]pyridin-3-yl)-6-(3-thienyl)pyridin-2(1H)-one]
6 | < 10 nM | COc1cccc(-c2cc(-c3c[nH]c4ncccc34)cc(=O)[nH]2)c1F [Example 44, 6-(2-fluoro-3-methoxyphenyl)-4-(1H-pyrrolo[2,3-b]pyridin-3-yl)pyridin-2(1H)-one]
7 | < 10 nM | O=c1cc(-c2c[nH]c3ncccc23)cc(-c2ccc(Cl)cc2F)[nH]1 [Example 45, 6-(4-chloro-2-fluorophenyl)-4-(1H-pyrrolo[2,3-b]pyridin-3-yl)pyridin-2(1H)-one]
8 | < 10 nM | O=c1cc(-c2c[nH]c3ncccc23)nc(NC2CCNCC2)[nH]1 [Example 6, 2-(piperidin-4-ylamino)-6-(1H-pyrrolo[2,3-b]pyridin-3-yl)pyrimidin-4(3H)-one]
9 | < 10 nM | Cc1ccccc1-c1nc(-c2c[nH]c3ncccc23)cc(=O)[nH]1 [Example 33, 2-(2-methylphenyl)-6-(1H-pyrrolo[2,3-b]pyridin-3-yl)pyrimidin-4(3H)-one]
10 | < 10 nM | CNCCNc1nc(-c2c[nH]c3ncccc23)cc(=O)[nH]1 [Example 16, 2-{[2-(methylamino)ethyl]amino}-6-(1H-pyrrolo[2,3-b]pyridin-3-yl)pyrimidin-4(3H)-one]
11 | < 10 nM | O=c1cc(-c2c[nH]c3ncccc23)nc(NCc2cccc(O)c2)[nH]1 [Example 23, 2-[(3-hydroxybenzyl)amino]-6-(1H-pyrrolo[2,3-b]pyridin-3-yl)pyrimidin-4(3H)-one]
12 | < 10 nM | COc1ncccc1-c1cc(-c2c[nH]c3ncccc23)cc(=O)[nH]1 [Example 47, 2′-methoxy-4-(1H-pyrrolo[2,3-b]pyridin-3-yl)-2,3′-bipyridin-6(1H)-one]
13 | < 10 nM | CN1CCC(Nc2nc(-c3c[nH]c4ncccc34)cc(=O)[nH]2)CC1 [Example 29, 2-[(1-methylpiperidin-4-yl)amino]-6-(1H-pyrrolo[2,3-b]pyridin-3-yl)pyrimidin-4(3H)-one]
14 | < 10 nM | NCCCOc1cccc(CNc2nc(-c3c[nH]c4ncccc34)cc(=O)[nH]2)c1 [Example 63, 2-{[3-(3-aminopropoxy)benzyl]amino}-6-(1H-pyrrolo[2,3-b]pyridin-3-yl)pyrimidin-4(3H)-one]
15 | < 10 nM | O=c1cc(-c2c[nH]c3ncccc23)nc(NCC2CCCO2)[nH]1 (stereo not shown) [Example 10, 6-(1H-pyrrolo[2,3-b]pyridin-3-yl)-2-[(tetrahydrofuran-2-ylmethyl)amino]pyrimidin-4(3H)-one]
16 | < 10 nM | COc1cccc(Nc2cc(-c3c[nH]c4ncccc34)cc(=O)[nH]2)c1 [Example 54, 6-[(3-methoxyphenyl)amino]-4-(1H-pyrrolo[2,3-b]pyridin-3-yl)pyridin-2(1H)-one]
17 | < 10 nM | O=c1cc(-c2c[nH]c3ncccc23)nc(NCc2ccccc2C(F)(F)F)[nH]1 [Example 20, 6-(1H-pyrrolo[2,3-b]pyridin-3-yl)-2-{[2-(trifluoromethyl)benzyl]amino}pyrimidin-4(3H)-one]
18 | < 10 nM | O=c1cc(-c2c[nH]c3ncccc23)nc(NC2CCOCC2)[nH]1 [Example 9, 6-(1H-pyrrolo[2,3-b]pyridin-3-yl)-2-(tetrahydro-2H-pyran-4-ylamino)pyrimidin-4(3H)-one]
19 | < 10 nM | N[C@H]1CC[C@H](Nc2nc(-c3c[nH]c4ncccc34)cc(=O)[nH]2)CC1 [Example 4, 2-[(trans-4-aminocyclohexyl)amino]-6-(1H-pyrrolo[2,3-b]pyridin-3-yl)pyrimidin-4(3H)-one]
20 | < 10 nM | CN(c1nc(-c2c[nH]c3ncccc23)cc(=O)[nH]1)C1CCCCC1 [Example 11, 2-[cyclohexyl(methyl)amino]-6-(1H-pyrrolo[2,3-b]pyridin-3-yl)pyrimidin-4(3H)-one]
21 | < 10 nM | O=c1cc(-c2c[nH]c3ncccc23)cc(-c2cccc(Cl)c2)[nH]1 [Example 42, 6-(3-chlorophenyl)-4-(1H-pyrrolo[2,3-b]pyridin-3-yl)pyridin-2(1H)-one]

The next lines start with the molecule.

Row | SMILES | Ki
22 | COCCN(CCOC)c1nc(-c2c[nH]c3ncccc23)cc(=O)[nH]1 [Example 17, 2-[bis(2-methoxyethyl)amino]-6-(1H-pyrrolo[2,3-b]pyridin-3-yl)pyrimidin-4(3H)-one] | < 10 nM
23 | O=c1cc(-c2c[nH]c3ncccc23)nc(NC2CCCC2)[nH]1 [Example 26, 2-(cyclopentylamino)-6-(1H-pyrrolo[2,3-b]pyridin-3-yl)pyrimidin-4(3H)-one] | < 10 nM
24 | O=c1cc(-c2c[nH]c3ncccc23)nc(N2CCC(CO)CC2)[nH]1 [Example 21, 2-[4-(hydroxymethyl)piperidin-1-yl]-6-(1H-pyrrolo[2,3-b]pyridin-3-yl)pyrimidin-4(3H)-one] | < 10 nM
25 | Cc1ccc(-c2nc(-c3c[nH]c4ncccc34)cc(=O)[nH]2)cc1 [Example 60, 2-(4-methylphenyl)-6-(1H-pyrrolo[2,3-b]pyridin-3-yl)pyrimidin-4(3H)-one] | < 10 nM
26 | C[C@H](Nc1nc(-c2c[nH]c3ncccc23)cc(=O)[nH]1)c1ccccc1 [Example 8, 2-{[(1S)-1-phenylethyl]amino}-6-(1H-pyrrolo[2,3-b]pyridin-3-yl)pyrimidin-4(3H)-one] | < 10 nM
27 | O=c1cc(-c2c[nH]c3ncccc23)nc(NCCCn2ccnc2)[nH]1 [Example 30, 2-{[3-(1H-imidazol-1-yl)propyl]amino}-6-(1H-pyrrolo[2,3-b]pyridin-3-yl)pyrimidin-4(3H)-one] | < 10 nM
28 | O=c1cc(-c2c[nH]c3ncccc23)cc(Nc2ccccc2)[nH]1 [Example 55, 6-anilino-4-(1H-pyrrolo[2,3-b]pyridin-3-yl)pyridin-2(1H)-one] | < 10 nM
29 | COCCNc1nc(-c2c[nH]c3ncccc23)cc(=O)[nH]1 [Example 18, 2-[(2-methoxyethyl)amino]-6-(1H-pyrrolo[2,3-b]pyridin-3-yl)pyrimidin-4(3H)-one] | < 10 nM
30 | O=c1cc(-c2c[nH]c3ncccc23)cc(-c2cccc(N3CCOCC3)c2)[nH]1 [Example 50, 6-[3-(morpholin-4-yl)phenyl]-4-(1H-pyrrolo[2,3-b]pyridin-3-yl)pyridin-2(1H)-one] | < 10 nM
31 | O=c1cc(-c2c[nH]c3ncccc23)nc(NCc2cc(F)cc(F)c2)[nH]1 [Example 5, 2-[(3,5-difluorobenzyl)amino]-6-(1H-pyrrolo[2,3-b]pyridin-3-yl)pyrimidin-4(3H)-one] | < 10 nM
32 | COc1nccc(-c2cc(-c3c[nH]c4ncccc34)cc(=O)[nH]2)c1Cl [Example 49, 3′-chloro-2′-methoxy-4-(1H-pyrrolo[2,3-b]pyridin-3-yl)-2,4′-bipyridin-6(1H)-one] | < 10 nM
33 | Cc1cccc(-c2nc(-c3c[nH]c4ncccc34)cc(=O)[nH]2)c1 [Example 61, 2-(3-methylphenyl)-6-(1H-pyrrolo[2,3-b]pyridin-3-yl)pyrimidin-4(3H)-one] | < 10 nM
34 | O=c1cc(-c2c[nH]c3ncccc23)cc(-c2cn[nH]c2)[nH]1 [Example 52, 6-(1H-pyrazol-4-yl)-4-(1H-pyrrolo[2,3-b]pyridin-3-yl)pyridin-2(1H)-one] | < 10 nM
35 | C[C@@H](Nc1nc(-c2c[nH]c3ncccc23)cc(=O)[nH]1)c1ccccc1 [Example 12, 2-{[(1R)-1-phenylethyl]amino}-6-(1H-pyrrolo[2,3-b]pyridin-3-yl)pyrimidin-4(3H)-one] | < 10 nM
36 | O=c1cc(-c2c[nH]c3ncccc23)nc(N2CCOCC2)[nH]1 [Example 24, 2-(morpholin-4-yl)-6-(1H-pyrrolo[2,3-b]pyridin-3-yl)pyrimidin-4(3H)-one] | < 10 nM
37 | COC1CCN(c2nc(-c3c[nH]c4ncccc34)cc(=O)[nH]2)CC1 [Example 27, 2-(4-methoxypiperidin-1-yl)-6-(1H-pyrrolo[2,3-b]pyridin-3-yl)pyrimidin-4(3H)-one] | < 10 nM
38 | O=c1cc(-c2c[nH]c3ncccc23)nc(NCc2ccccc2)[nH]1 [Example 2, 2-(benzylamino)-6-(1H-pyrrolo[2,3-b]pyridin-3-yl)pyrimidin-4(3H)-one] | < 10 nM
39 | Cc1cccc(-c2nc(-c3c[nH]c4ncccc34)cc(=O)[nH]2)c1C [Example 62, 2-(2,3-dimethylphenyl)-6-(1H-pyrrolo[2,3-b]pyridin-3-yl)pyrimidin-4(3H)-one] | < 10 nM
40 | CS(=O)(=O)c1cccc(-c2cc(-c3c[nH]c4ncccc34)cc(=O)[nH]2)c1 [Example 51, 6-[3-(methylsulfonyl)phenyl]-4-(1H-pyrrolo[2,3-b]pyridin-3-yl)pyridin-2(1H)-one] | < 10 nM
